Laboratory results reported in patent publication US7276511B2, “Benzylamine derivative” (Zeria Pharmaceutical Co., Ltd., priority 2003, dated 2007).
Where a name gives a salt, the structure may show the parent alone.

biological target: NK-1 receptor (Homo sapiens, UniProt P25103); assay: NK-1 receptor-binding test ([3H]-Substance P, hNK1-CHO cells); design: expressed in transfected cells; host or cells: CHO-K1 cells (ATCC: CCL-61), G418-resistant, hNK1-CHO; details: not given
Procedure: 1. NK-1 Receptor-binding Test
1) Preparation of Human NK-1 Receptor Expression Cells
FuGene 6 transfection reagent (Boegringer Mannheim) (3 μL) was diluted in an F-12 culture broth (97 μL), and pCR3.1 plasmid to which human NK-1 receptor cDNA had been introduced (Invitrogen) (10 μL) was added thereto. The mixture was mixed and incubated for 15 minutes (transfection reagent). CHO-K1 cells (ATCC: CCL-61) were cultured for 24 hours, and the whole reagent prepared above was added to the cultured CHO-K1 cells ([…]). Subsequently, culture was performed in the presence of G418 (Stratagene), and the resistant cells were employed as cells into which human NK-1 receptor gene was introduced (hNK1-CHO).
2) Subcultivation of hNK1-CHO Cells
The hNK1-CHO cells were treated with trypsin-EDTA and subcultivated in an F-12 culture broth (containing 10% fetal bovine serum, 10 mM HEPES, 100 U/mL, penicillin, 100 μg/mL streptmycin, 400 μg/mL G418) in a 75-cm^2 flask (FALCON). Cells to be employed in the receptor-binding experiment were added to a 24-well plate (IWAKI) at 1×10^5 cells/well, and subcultured for 48 hours at 37° C. under 95% […] and 5% CO2.
3) Receptor-binding Experiment
When the hNK1-CHO cells became subconfluent on the 24-well plate, an F-12 culture broth (containing 10 mM HEPES and 0.1% fetal bovine serum) (450 μL), [^3H]-Substance P (Amersham, final concentration 0.5 nM), and a test compound were added to the cells, and the mixture was incubated for 40 minutes at 37° C. For the measurement of non-specific binding, L703606 (Sigma) was added instead of the test compound. After completion of incubation, the mixture was washed with ice-cooled phosphate buffered saline containing 0.1% fetal bovine serum, and the cells were lysed with 1N NaOH (0.5 mL). The lysate was transfered to a plastic vial containing UltimaGold MV (5 mL), and the radioactivity was determined by means of a liquid liquid scintillation counter (Packard, 2000CA).
(§1) Percent radioactive ligand-receptor binding inhibition of each test compound was calculated by use of the following equation, and IC50 (nM) was determined through pseudo-Hill analysis.
(§2) Percent inhibition (%)=[1−(C−A)/(B−A)]×100
(§3) A: Radioactivity attributed to non-specific binding
(§4) B: Radioactivity without test compound
(§5) C: Radioactivity with test compound

NK-1 receptor, sequence (P25103 whole entry): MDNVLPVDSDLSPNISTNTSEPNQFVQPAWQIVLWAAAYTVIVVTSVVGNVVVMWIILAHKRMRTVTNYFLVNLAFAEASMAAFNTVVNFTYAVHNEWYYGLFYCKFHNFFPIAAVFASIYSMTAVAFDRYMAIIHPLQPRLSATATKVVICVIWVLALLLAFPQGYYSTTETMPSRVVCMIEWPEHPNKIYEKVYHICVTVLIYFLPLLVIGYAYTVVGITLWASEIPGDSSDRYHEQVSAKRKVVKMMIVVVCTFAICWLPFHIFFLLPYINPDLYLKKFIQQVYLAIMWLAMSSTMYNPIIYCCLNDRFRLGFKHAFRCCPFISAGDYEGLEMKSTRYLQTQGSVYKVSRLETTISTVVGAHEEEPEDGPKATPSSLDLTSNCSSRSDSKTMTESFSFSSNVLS

| Structure (SMILES) | IC50 [nM] |
| --- | --- |
| COc1cc(C(=O)N(C)C[C@](CCCN2CCC3(CC2)c2ccccc2C[S@+]3[O-])(c2ccc(Cl)c(Cl)c2)N(C)C(=O)Oc2ccccc2)cc(OC)c1OC [Compound No. 589, phenyl{1-(3,4,5-trimethoxy-N-methylbenzamide)-2-(S)-(3,4-dichlorophenyl)-5-[spiro(benzo(c)thiophene-(2S)-oxido-1(3H),4′-piperidin)-1′-yl]pentan-2-yl}methylcarbamate hydrochloride] | 0.53 |
| CN(C[C@](CCCN1CCC(C(N)=O)(c2ccccc2)CC1)(c1ccc(Cl)c(Cl)c1)N(C)C(=O)Oc1ccccc1)C(=O)C(F)(F)F [Compound No. 578, phenyl[1-(2,2,2-trifluoro-N-methylacetamide)-2-(S)-(3,4-dichlorophenyl)-5-(4-carbamoyl-4-phenylpiperidine-1′-yl)pentan-2-yl]methylcarbamate hydrochloride] | 9.5 |

same assay, conditions: Table 2; inhibition of [3H]-Substance P (0.5 nM) binding to hNK1-CHO cells, pseudo-Hill analysis; read-out: NK-1

| Structure (SMILES) | IC50 [nM] |
| --- | --- |
| COc1cc(COCC(CCCN2CCC(C(N)=O)(c3ccccc3)CC2)(c2ccc(Cl)c(Cl)c2)N(C)C(=O)Nc2ccccc2)cc(OC)c1OC (racemic) [Compound No. 15, 1-[4-(3,4-Dichloro-phenyl)-4-(1-methyl-3-phenyl-ureido)-5-(3,4,5-trimethoxy-benzyloxy)-pentyl]-4-phenyl-piperidine-4-carboxylic acid amide] | 0.9 |
| COc1cc(COC[C@](CCCN2CCC3(CC2)c2ccccc2C[S@+]3[O-])(c2ccc(Cl)c(Cl)c2)N(C)C(=O)Nc2cccc(F)c2)cc(OC)c1OC [Compound No. 615, 1-{1-(3,4,5-trimethoxybenzyloxy)-2-(S)-(3,4-dichlorophenyl)-5-[spiro(benzo(c)thiophene-(2S)-oxido-1(3H),4′-piperidin)-1′-yl]pentan-2-yl}-3-(3-fluorophenyl)-1-methylurea hydrochloride] | 0.58 |

biological target: T1, Cloned Neurokinin Receptor Subtype 2 Human (Homo sapiens, UniProt P21452); assay: NK-2 receptor-binding experiment ([3H]-SR48968, CHO cell membranes); details: Table 3; inhibition of [3H]-SR48968 (0.85 nM) binding, pseudo-Hill analysis
T1 construct: purchased Biosignal Packard; host or cells: CHO cells
T1 sequence (P21452 1-398): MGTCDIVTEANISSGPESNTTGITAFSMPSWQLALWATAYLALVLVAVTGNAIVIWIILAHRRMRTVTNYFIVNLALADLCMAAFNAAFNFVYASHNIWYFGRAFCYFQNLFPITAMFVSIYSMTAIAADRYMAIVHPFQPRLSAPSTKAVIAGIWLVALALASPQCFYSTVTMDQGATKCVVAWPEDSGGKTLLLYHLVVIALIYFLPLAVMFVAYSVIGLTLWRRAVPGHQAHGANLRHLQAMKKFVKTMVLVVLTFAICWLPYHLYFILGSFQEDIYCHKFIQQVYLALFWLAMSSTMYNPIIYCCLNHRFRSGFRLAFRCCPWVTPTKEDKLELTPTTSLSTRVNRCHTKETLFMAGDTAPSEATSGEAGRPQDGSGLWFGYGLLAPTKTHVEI
Procedure: 2. NK-2 Receptor-binding Experiment
Cloned Neurokinin Receptor Subtype 2 Human (CHO cells, Biosignal Packard), [^3H]-SR48968 (Amersham, final concentration 0.85 nM), and a test compound were mixed with 20 mM HEPES buffer, and the mixture was incubated for 50 minutes at 27° C. After completion of incubation, membrane components were collected by means of an automatic filtration apparatus (Brandel) onto a GF/C glass fiber filter (Whatman).
Before use, in order to prevent non-specific binding, the glass fiber filter had been pre-treated with 0.1% polyethylene imine solution for about 4 hours.
The filter employed to collect the membrane components was transferred to a plastic vial containing UltimaGold MV (5 mL), and measured by means of a liquid scintillation counter (Packard, 2000CA) in terms of the radioactivity.
as §1, §2, §3, §4, §5

| Structure (SMILES) | IC50 [nM] |
| --- | --- |
| CN(CC(CCN1CCC2(CC1)c1ccccc1C[S+]2[O-])(c1ccc(Cl)c(Cl)c1)N(C)C(=O)C(=O)Nc1ccccc1Cl)C(=O)CC(F)(F)F [Compound No. 9, N-(2-Chloro-phenyl)-N′-{1-(3,4-dichloro-phenyl)-1-{[methyl-(3,3,3-trifluoro-propionyl)-amino]-methyl}-3-{spiro[benzo(c)thiophene-1(3H),4′-piperidine]-(2S)-oxido}-1′-yl-propyl}-N′-methyl-oxalamide hydrochloride] | 7.2 |
| CN(C[C@](CCN1CCC2(CC1)NC(=O)Cc1ccccc12)(c1ccc(Cl)c(Cl)c1)N(C)C(=O)C(=O)Nc1ccccc1)C(=O)C(F)(F)F [Compound No. 29, N^1-{1-(2,2,2-trifluoro-N-methylacetamide)-2-(S)-(3,4-dichlorophenyl)-4-[3-oxo-3,4-dihydro-2H-spiro(isoquinoline-1,4′-piperidin)-1′-yl]butan-2-yl}-N^1-methyl-N^2-phenyloxalamide hydrochloride] | 4 |
| CCOC(=O)C(=O)N(C)C(CCN1CCC2(CC1)c1ccccc1C[C@@H]2O)(COCc1cc(OC)c(OC)c(OC)c1)c1ccc(Cl)c(Cl)c1 (mixture of isomers) [Compound No. 21, N-[1-(3,4-Dichloro-phenyl)-3-{spiro[((2S)-hydroxy)indan-1,4′-piperidine]}-1′-yl-1-(3,4,5-trimethoxy-benzyloxymethyl)-propyl]-N-methyl-oxamic acid ethyl ester hydrochloride] | 8.7 |
| CCN(C(=O)C(=O)N(C)[C@](CCN1CCC2(CC1)c1ccccc1C[S@+]2[O-])(CN(C)C(=O)C(C)(C)C)c1ccc(Cl)c(Cl)c1)c1ccccc1 [Compound No. 37, N^1-{[1-(N-methyl-trimethylacetamide)-2-(S)-(3,4-dichlorophenyl)-4-[spiro(benzo(c)thiophene-(2S)-oxido-1(3H),4′-piperidin)-1′-yl]butan-2-yl}-N^1-methyl-N^2-ethyl-N^2-phenyloxalamide hydrochloride] | 1.8 |
| CN(CC(CCN1CCC2(CC1)NC(=O)Cc1ccccc12)(c1ccc(Cl)c(Cl)c1)N(C)C(=O)NC(c1ccccc1)c1ccccc1)C(=O)C(F)(F)F (stereo not drawn) [Compound No. 3, N-{2-(3-benzhydryl-1-methylureido)-2-(3,4-dihydrodichlorophenyl)-4-{spiro[isoquinoline-1(2H),4′-piperidine]-3(4H)-one}-1′-yl-butyl}-2,2,2-trifluoro-N-methyl-acetamide hydrochloride] | 1.7 |
| CN(C[C@](CCN1CCC2(CC1)NC(=O)Cc1ccccc12)(c1ccc(Cl)c(Cl)c1)N(C)C(=O)c1ccccc1)C(=O)C(F)(F)F [Compound No. 23, N-{1-(2,2,2-trifluoro-N-methylacetamide)-2-(S)-(3,4-dichlorophenyl)-4-[3-oxo-3,4-dihydro-2H-spiro(isoquinoline-1,4′-piperidin)-1′-yl]butan-2-yl}-N-methylbenzamide hydrochloride] | 1.7 |
| CC(C)C(=O)N(C)C[C@](CCN1CCC2(CC1)c1ccccc1C[S@+]2[O-])(c1ccc(Cl)c(Cl)c1)N(C)C(=O)C(=O)N(C)c1ccccc1 [Compound No. 33, N^1-{1-(N-methylisobutylamide)-2-(S)-(3,4-dichlorophenyl)-4-[spiro(benzo(c)thiophene-(2S)-oxido-1(3H), 41-piperidin)-1′-yl]butan-2-yl}-N^1,N^2-dimethyl-N^2-phenyloxalamide hydrochloride] | 0.65 |
| CN(C[C@](CCN1CCC2(CC1)c1ccccc1C[S@+]2[O-])(c1ccc(Cl)c(Cl)c1)N(C)C(=O)c1ccccc1)C(=O)C(F)(F)F [Compound No. 26, N-{1-(2,2,2-trifluoro-N-methylacetamide)-2-(S)-(3,4-dichlorophenyl)-4-[spiro(benzo(c)thiophene-(2S)-oxido-1(3H),4′-piperidin)-1′-yl]butan-2-yl}-N-methylbenzamide hydrochloride] | 0.85 |
| CN(C[C@](CCN1CCC2(CC1)NC(=O)Cc1ccccc12)(c1ccc(Cl)c(Cl)c1)N(C)C(=O)c1ccc(C(F)(F)F)cc1)C(=O)C(F)(F)F [Compound No. 24, N-{1-(2,2,2-trifluoro-N-methylacetamide)-2-(S)-(3,4-dichlorophenyl)-4-[3-oxo-3,4-dihydro-2H-spiro(isoquinoline-1,4′-piperidin)-1′-yl]butan-2-yl}-N-methyl-4-trifluoromethyl-benzamide hydrochloride] | 2.9 |
| CN(C[C@](CCN1CCC2(CC1)c1ccccc1C[S@+]2[O-])(c1ccc(Cl)c(Cl)c1)N(C)C(=O)c1ccc(C(F)(F)F)cc1)C(=O)CC(F)(F)F [Compound No. 31, N-{1-(3,3,3-trifluoro-N-methylpropanamido)-2-(S)-(3,4-dichlorophenyl)-4-[spiro(benzo(c)thiophene-(2S)-oxido-1(3H),4′-piperidin)-1′-yl]butan-2-yl}-N-methyl-4-trifluoromethylbenzamide hydrochloride] | 0.75 |
| CC(C)C(=O)N(C)C[C@](CCN1CCC2(CC1)c1ccccc1C[S@+]2[O-])(c1ccc(Cl)c(Cl)c1)N(C)C(=O)c1ccccc1 [Compound No. 32, N-{1-(N-methylisobutylamide)-2-(S)-(3,4-dichlorophenyl)-4-[spiro(benzo(c)thiophene-(2S)-oxido-1(3H),4′-piperidin)-1′-yl]butan-2-yl}-N-methylbenzamide hydrochloride] | 1 |
